Measurements from US20250100996A1, “HETEROCYCLOALKYL AND HETEROARYL COMPOUNDS AND PHARMACEUTICAL COMPOSITIONS THAT MODULATE IKZF2” (Plexium, Inc., priority 2021, published 2025).

Key:
IKZF1 (Ikaros) = biological target: T1, IKZF1 (Ikaros) (Homo sapiens, UniProt Q13422); test: IKZF1 reporter degradation assay (HEK 293T IKZF1-mNeonGreen reporter cell line); type: cell-based; settings: 24 hours incubation
T1 construct: mScarlet (behind P2A) (C, cleaved yes); expressed in transfected cells
From the text: Polycistronic plasmids were constructed for the mammalian expression of fluorescent reporter fusions of human transcription factors IKZF1 (Ikaros), IKZF2 (Helios), and IKZF3 (Aiolos). The respective protein sequences had their C-terminal end joined to a GGGGS linker repeated three times followed by mNeonGreen, P2A sequence, and mScarlet. The DNA sequences of the open reading frames are as follows:
IKZF1, IKZF2, and IKZF3 constructs were cloned into the UCOE Hygromycin expression vectors (Millipore Sigma). Reporter constructs were transfected using cationic lipid reagents into adherent HEK 293T cells and stable integrants were selected by treatment with 200 μg/mL hygromycin B. Clonal populations were obtained from the population of stable integrants either by limiting dilution or fluorescence activated cell sorting.
The clonal stable cell lines were maintained under constant 200 μg/mL hygromycin B selection while being passaged for use in the degradation assays. […] The fluorescence intensity of the IKZF1/2/3-mNeonGreen (FITC channel) and mScarlet (PE channel) reporters were routinely analyzed by flow cytometry to confirm consistent expression levels between experiments.
The IKZF1/IKZF2/IKZF3 degradation assays were carried out by harvesting the HEK 293T reporter cell lines and resuspending the cells in media formulated for reduced background fluorescence (FluoroBrite; Thermo Fisher). The respective cell lines were seeded at a density of 4000 cells/well into black-walled 384-well optical grade assay tissue culture plates. The cells were incubated overnight at 37° C. to allow for attachment to the assay plate. Dilutions of the compounds were prepared in DMSO from 10 mM compound stocks. The assay plates were treated with appropriate concentrations of the compounds by dispensing the DMSO dilutions in quadruplicate wells with an upper limit of 0.5% final DMSO.
After 24 hours incubation with the compounds, the assay plates were imaged on an ImageXpress Pico microscopy system (cells maintained at 37° C. during imaging) to obtain the fluorescent readouts. The assay plates were imaged in the FITC and Tetramethylrhodamine (TRITC) channels to obtain the mNeonGreen fluorescence intensity (reporter degradation data) and mScarlet fluorescence intensity (for cell segmentation). 293T-IKZF1 and 293T-IKZF3 reporter cell lines were imaged with exposures of 500 milliseconds (ms) for both FITC and TRITC channels, while the 293T-IKZF2 reporter cell line was imaged with exposures of 1000 ms for FITC and 1250 ms for TRITC. The resulting data was analyzed with Cell Reporter Xpress software using the 2-channel cell scoring analysis with a “percent positive” readout. The TRITC channel was selected for the “nuclei” segmentation with a threshold of 20 while the FITC channel was selected for the “Marker 1” segmentation and a threshold of 100 for the IKZF1 and IKZF3 reporter lines. […] The minimum segmentation width was set to 6 micrometers and the maximum segmentation width was set to 15 micrometers for all cell lines. The DC50 calculations were determined by regression to best fit four-parameter logistic curves using GraphPad Prism.

IKZF3 (Aiolos) = biological target: T2, IKZF3 (Aiolos) (Homo sapiens, UniProt Q9UKT9); test: IKZF3 reporter degradation assay (HEK 293T IKZF3-mNeonGreen reporter cell line); type: cell-based; settings: 24 hours incubation
T2 construct: Leu-Asp junction (codons ctcgac before the linker); mScarlet (behind P2A) (C, cleaved yes); expressed in transfected cells
T2 sequence (Q96SW2 whole entry partner): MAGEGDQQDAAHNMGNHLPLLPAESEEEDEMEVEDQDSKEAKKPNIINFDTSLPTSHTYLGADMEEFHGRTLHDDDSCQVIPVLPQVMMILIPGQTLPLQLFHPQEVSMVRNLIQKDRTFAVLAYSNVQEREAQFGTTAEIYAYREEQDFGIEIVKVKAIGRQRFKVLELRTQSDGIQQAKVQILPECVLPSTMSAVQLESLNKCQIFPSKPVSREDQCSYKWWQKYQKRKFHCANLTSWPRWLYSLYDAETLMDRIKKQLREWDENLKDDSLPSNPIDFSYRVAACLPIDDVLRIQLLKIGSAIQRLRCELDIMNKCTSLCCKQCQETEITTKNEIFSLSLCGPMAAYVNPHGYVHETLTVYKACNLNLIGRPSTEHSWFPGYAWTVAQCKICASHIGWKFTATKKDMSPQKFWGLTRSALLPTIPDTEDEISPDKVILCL
T2 sequence (Q16531 whole entry partner): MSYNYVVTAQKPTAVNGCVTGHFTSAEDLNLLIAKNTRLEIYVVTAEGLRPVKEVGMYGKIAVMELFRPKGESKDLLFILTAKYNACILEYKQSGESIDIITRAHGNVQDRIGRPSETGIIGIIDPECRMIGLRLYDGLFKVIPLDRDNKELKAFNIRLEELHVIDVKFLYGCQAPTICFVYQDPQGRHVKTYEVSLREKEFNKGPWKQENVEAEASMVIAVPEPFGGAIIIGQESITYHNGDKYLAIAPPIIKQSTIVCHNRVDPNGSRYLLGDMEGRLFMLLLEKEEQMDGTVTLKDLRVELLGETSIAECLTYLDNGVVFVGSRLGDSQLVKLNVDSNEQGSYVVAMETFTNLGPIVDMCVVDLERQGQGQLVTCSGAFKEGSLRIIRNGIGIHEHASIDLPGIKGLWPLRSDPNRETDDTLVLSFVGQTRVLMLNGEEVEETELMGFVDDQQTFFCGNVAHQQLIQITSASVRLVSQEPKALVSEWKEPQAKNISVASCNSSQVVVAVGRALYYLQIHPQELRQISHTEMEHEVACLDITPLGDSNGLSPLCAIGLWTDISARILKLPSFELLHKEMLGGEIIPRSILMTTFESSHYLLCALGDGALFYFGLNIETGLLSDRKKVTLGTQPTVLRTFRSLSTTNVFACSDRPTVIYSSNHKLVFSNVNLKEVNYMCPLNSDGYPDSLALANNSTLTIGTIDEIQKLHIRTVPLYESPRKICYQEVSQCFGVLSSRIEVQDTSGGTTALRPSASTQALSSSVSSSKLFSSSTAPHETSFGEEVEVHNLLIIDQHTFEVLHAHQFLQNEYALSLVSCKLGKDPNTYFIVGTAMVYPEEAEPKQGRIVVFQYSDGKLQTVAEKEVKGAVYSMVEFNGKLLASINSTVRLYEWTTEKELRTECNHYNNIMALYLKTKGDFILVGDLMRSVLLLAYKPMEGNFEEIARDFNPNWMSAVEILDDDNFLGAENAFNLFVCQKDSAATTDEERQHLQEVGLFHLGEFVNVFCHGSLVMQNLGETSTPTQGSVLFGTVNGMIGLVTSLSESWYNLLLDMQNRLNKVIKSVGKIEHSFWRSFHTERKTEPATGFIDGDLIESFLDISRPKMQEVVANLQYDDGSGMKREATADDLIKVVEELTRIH
T2 sequence (Q9UKT9 whole entry): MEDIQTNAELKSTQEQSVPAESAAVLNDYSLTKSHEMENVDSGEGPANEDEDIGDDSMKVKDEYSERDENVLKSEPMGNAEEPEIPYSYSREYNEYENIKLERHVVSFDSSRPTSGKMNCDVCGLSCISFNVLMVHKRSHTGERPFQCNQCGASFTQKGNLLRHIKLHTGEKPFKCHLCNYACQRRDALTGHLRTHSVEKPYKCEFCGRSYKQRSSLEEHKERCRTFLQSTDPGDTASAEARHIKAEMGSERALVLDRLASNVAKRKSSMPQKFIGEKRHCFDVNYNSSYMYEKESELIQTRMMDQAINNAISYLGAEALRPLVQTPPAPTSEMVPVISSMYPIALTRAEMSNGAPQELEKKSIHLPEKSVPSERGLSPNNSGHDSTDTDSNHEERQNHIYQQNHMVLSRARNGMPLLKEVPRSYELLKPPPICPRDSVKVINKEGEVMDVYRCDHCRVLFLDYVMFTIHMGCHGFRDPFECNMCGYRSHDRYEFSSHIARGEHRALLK
How it was run: (§1)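 Cells were seeded overnight and then dosed with DMSO dilutions of compound. After 24 h, the plates were imaged live in the FITC and TRITC channels. The fraction of reporter-positive cells was plotted and fitted to a four-parameter logistic curve to give DC50.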

IKZF2 (Helios) [1] = biological target: T3, IKZF2 (Helios) (Homo sapiens, UniProt Q96SW2+Q9UKS7); test: IKZF2 reporter degradation assay (HEK 293T IKZF2-mNeonGreen reporter cell line); type: cell-based; settings: HEK-293T, 24 h, 1 μM compound, HEK 293T IKZF2 reporter cells, 24 hours incubation
T3 construct: Leu-Asp junction (codons ctcgac before the linker); mScarlet (behind P2A) (C, cleaved yes); expressed in transfected cells
T3 sequence (Q9UKS7 whole entry): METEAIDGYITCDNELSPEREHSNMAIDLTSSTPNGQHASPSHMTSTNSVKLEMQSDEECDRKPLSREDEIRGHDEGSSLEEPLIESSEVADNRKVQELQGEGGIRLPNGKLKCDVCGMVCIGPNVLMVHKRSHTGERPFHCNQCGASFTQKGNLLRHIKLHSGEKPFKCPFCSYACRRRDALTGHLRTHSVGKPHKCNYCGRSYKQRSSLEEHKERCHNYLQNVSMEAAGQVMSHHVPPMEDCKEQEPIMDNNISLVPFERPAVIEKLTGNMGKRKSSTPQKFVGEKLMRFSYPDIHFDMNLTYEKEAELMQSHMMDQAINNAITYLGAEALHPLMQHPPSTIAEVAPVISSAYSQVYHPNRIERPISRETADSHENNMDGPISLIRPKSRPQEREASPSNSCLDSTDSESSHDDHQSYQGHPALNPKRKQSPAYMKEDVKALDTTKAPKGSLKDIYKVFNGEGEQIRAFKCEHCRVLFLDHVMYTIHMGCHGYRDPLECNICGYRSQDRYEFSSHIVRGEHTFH
T3 sequence (Q96SW2 whole entry): as the sequence (Q96SW2 whole entry partner) above
T3 sequence (Q16531 whole entry partner): as the sequence (Q16531 whole entry partner) above
How it was run: as §1

IKZF2 (Helios) [2] = biological target: T4, IKZF2 (Helios) (Homo sapiens, UniProt Q9UKS7); test: as above; type: cell-based; settings: 24 hours incubation
T4 construct: Leu-Asp junction (codons ctcgac before the linker); mScarlet (behind P2A) (C, cleaved yes); expressed in transfected cells
T4 sequence (Q9UKS7 whole entry): as the sequence (Q9UKS7 whole entry) above
T4 sequence (Q96SW2 whole entry, further chain): as the sequence (Q96SW2 whole entry partner) above
T4 sequence (Q16531 whole entry partner): as the sequence (Q16531 whole entry partner) above
How it was run: as §1

[3] = biological target: T5, human E3 ligase component cereblon (CRBN) (Homo sapiens, UniProt Q96SW2); test: Cereblon (CRBN) target engagement, NanoBRET TE Intracellular E3 Ligase Assay in transfected HEK-293T cells; settings: read-out: CRBN Binding EC50
T5 construct: host or cells: HEK293T
T5 sequence (Q96SW2 whole entry): as the sequence (Q96SW2 whole entry partner) above
T5 sequence (Q16531 whole entry partner): as the sequence (Q16531 whole entry partner) above
How it was run: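 Tracer displacement was read as the 610/450 nm BRET signal after 2 h at 37° C with an 11-point dilution series, typically 10 μM to 100 pM. Live HEK-293T cells expressed NanoLuc fused N-terminal to human CRBN together with DDB1. IC50 was fitted with a four-parameter logistic model.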

[4] = HEK 293T IKZF1-mNeonGreen reporter
[5] = HEK 293T IKZF3-mNeonGreen reporter
[6] = HEK 293T IKZF2-mNeonGreen reporter

T1 sequence (Q96SW2 whole entry partner): as the sequence (Q96SW2 whole entry partner) above
T1 sequence (Q16531 whole entry partner): as the sequence (Q16531 whole entry partner) above
T1 sequence (Q13422 whole entry): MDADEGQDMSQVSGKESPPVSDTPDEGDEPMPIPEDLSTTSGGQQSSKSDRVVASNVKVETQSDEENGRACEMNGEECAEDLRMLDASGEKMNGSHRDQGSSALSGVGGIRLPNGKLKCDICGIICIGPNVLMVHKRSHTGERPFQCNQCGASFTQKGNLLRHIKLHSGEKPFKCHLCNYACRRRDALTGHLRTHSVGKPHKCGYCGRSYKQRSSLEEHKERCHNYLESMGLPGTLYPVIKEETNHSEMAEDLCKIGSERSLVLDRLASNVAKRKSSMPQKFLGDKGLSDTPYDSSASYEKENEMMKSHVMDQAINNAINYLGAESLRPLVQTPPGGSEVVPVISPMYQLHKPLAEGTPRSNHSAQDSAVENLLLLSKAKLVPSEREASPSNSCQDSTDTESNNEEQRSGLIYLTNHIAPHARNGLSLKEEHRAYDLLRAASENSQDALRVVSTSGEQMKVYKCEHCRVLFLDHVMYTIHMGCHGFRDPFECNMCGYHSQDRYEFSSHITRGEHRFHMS

DC50 (IKZF1 (Ikaros); HEK 293T IKZF1 reporter cells) [µM] | DC50 (IKZF3 (Aiolos); HEK 293T IKZF3 reporter cells) [µM] | inhibition at 1 µM (IKZF2 (Helios) [1]) [%] | DC50 (IKZF2 (Helios) [2]; HEK 293T IKZF2 reporter cells) [µM] | DC50 (IKZF1 (Ikaros); [4]) [µM] | DC50 (IKZF3 (Aiolos); [5]) [µM] | EC50 [3] [µM] | DC50 (IKZF2 (Helios) [2]; [6]) [µM] | Compound
> 30 | > 30 | 49.9 | 0.188 | – | – | – | – | O=C1CCC(N2Cc3cc(OC4CCCCC4N4CC(c5cccnc5)C4)ccc3C2=O)C(=O)N1 (stereo not drawn) [Compound 36-B, 3-(1-oxo-5-((2-(3-(pyridin-3-yl)azetidin-1-yl)cyclohexyl)oxy)isoindolin-2-yl)piperidine-2,6-dione]
> 30 | > 30 | 32.1 | 0.525 | – | – | – | – | O=C1CCC(N2Cc3cc(OC4CCCCC4N4CC(c5ccnc(C(F)(F)F)c5)C4)ccc3C2=O)C(=O)N1 (stereo not drawn) [Compound 1-B, 3-(1-oxo-5-((2-(3-(2-(trifluoromethyl)pyridin-4-yl)azetidin-1-yl)cyclohexyl)oxy)isoindolin-2-yl)piperidine-2,6-dione]
> 30 | > 30 | 83.4 | 0.00889 | – | – | – | – | O=C1CCC(N2Cc3cc(O[C@H]4CCCC[C@@H]4N4CC(C5CCOCC5)C4)ccc3C2=O)C(=O)N1 (stereo partly drawn) [Compound 1-A, 3-(1-oxo-5-(((1S,2S)-2-(3-(tetrahydro-2H-pyran-4-yl)azetidin-1-yl)cyclohexyl)oxy)isoindolin-2-yl)piperidine-2,6-dione]
> 30 | > 30 | 78 | 0.0965 | – | – | – | – | O=C1CCC(N2Cc3cc(O[C@H]4CCCC[C@@H]4N4CC(n5cccn5)C4)ccc3C2=O)C(=O)N1 (stereo partly drawn) [Compound 81-B, 3-(5-(((1S,2S)-2-(3-(1H-pyrazol-1-yl)azetidin-1-yl)cyclohexyl)oxy)-1-oxoisoindolin-2-yl)piperidine-2,6-dione]
> 30 | > 30 | 74 | 0.0478 | – | – | – | – | O=C1CCC(N2Cc3cc(OC4CCCCC4N4CC(c5ccncc5)C4)ccc3C2=O)C(=O)N1 (stereo not drawn) [Compound 31-B, 3-(1-oxo-5-((2-(3-(pyridin-4-yl)azetidin-1-yl)cyclohexyl)oxy)isoindolin-2-yl)piperidine-2,6-dione]
> 30 | > 30 | 74.9 | 0.0299 | – | – | – | – | O=C1CCC(N2Cc3cc(OC4CCCCC4N4CC(c5ncc(F)cn5)C4)ccc3C2=O)C(=O)N1 (stereo not drawn) [Compound 6-B, 3-(5-((2-(3-(5-fluoropyrimidin-2-yl)azetidin-1-yl)cyclohexyl)-oxy)-1-oxoisoindolin-2-yl)piperidine-2,6-dione]
> 30 | > 30 | 86.4 | 0.0132 | – | – | – | – | O=C1CCC(N2Cc3cc(OC4CCCCC4N4CC(c5ccnc6ccccc56)C4)ccc3C2=O)C(=O)N1 (stereo not drawn) [Compound 66-B, 3-(1-oxo-5-((2-(3-(quinolin-4-yl)azetidin-1-yl)cyclohexyl)oxy)isoindolin-2-yl)piperidine-2,6-dione]
> 30 | > 30 | 63.1 | 0.12 | – | – | – | – | O=C1CCC(N2Cc3cc(OC4CCCCC4N4CC(c5cnccn5)C4)ccc3C2=O)C(=O)N1 (stereo not drawn) [Compound 2-B, 3-(1-oxo-5-((2-(3-(pyrazin-2-yl)azetidin-1-yl)cyclohexyl)oxy)isoindolin-2-yl)piperidine-2,6-dione]
> 30 | > 30 | 72.5 | 0.0382 | – | – | – | – | O=C1CCC(N2Cc3cc(OC4CCCCC4N4CC(c5cnc6ccccc6n5)C4)ccc3C2=O)C(=O)N1 (stereo not drawn) [Compound 21-B, 3-(1-oxo-5-((2-(3-(quinoxalin-2-yl)azetidin-1-yl)cyclohexyl)oxy)isoindolin-2-yl)piperidine-2,6-dione]
> 30 | > 30 | 80.6 | 0.0226 | – | – | – | – | COc1ccc(C2CN(C3CCCCC3Oc3ccc4c(c3)CN(C3CCC(=O)NC3=O)C4=O)C2)cn1 (stereo not drawn) [Compound 16-B, 3-(5-((2-(3-(6-methoxypyridin-3-yl)azetidin-1-yl)cyclohexyl)oxy)-1-oxoisoindolin-2-yl)piperidine-2,6-dione]
> 30 | > 30 | 55.8 | 0.026 | – | – | – | – | O=C1CCC(N2Cc3cc(OC4CCCCC4N4CC(c5c[nH]c6ccccc56)C4)ccc3C2=O)C(=O)N1 (stereo not drawn) [Compound 61-B, 3-(5-((2-(3-(1H-indol-3-yl)azetidin-1-yl)cyclohexyl)oxy)-1-oxoisoindolin-2-yl)piperidine-2,6-dione]
> 30 | > 30 | 78.2 | 0.0207 | – | – | – | – | COc1cc(C2CN(C3CCCCC3Oc3ccc4c(c3)CN(C3CCC(=O)NC3=O)C4=O)C2)ccn1 (stereo not drawn) [Compound 11-B, 3-(5-((2-(3-(2-methoxypyridin-4-yl)azetidin-1-yl)cyclohexyl)oxy)-1-oxoisoindolin-2-yl)piperidine-2,6-dione]
– | – | – | – | > 30 | > 30 | 0.024 | > 30 | O=C1CCC(N2Cc3cc(O[C@H]4CCCC4N4CC(c5ccnc6ccccc56)C4)ccc3C2=O)C(=O)N1 (mixture of isomers) [Compound 195-B, Rac-3-(1-oxo-5-(((trans)-2-(3-(quinolin-4-yl)azetidin-1-yl)cyclopentyl)oxy)isoindolin-2-yl)piperidine-2,6-dione]
– | – | – | – | > 30 | > 30 | 0.022 | > 30 | Cc1cnc(C2CN([C@H]3CCCC[C@@H]3Oc3ccc4c(c3)CN(C3CCC(=O)NC3=O)C4=O)C2)o1 (mixture of isomers) [Compound 175-B, Rac-3-(5-(((trans)-2-(3-(5-methyloxazol-2-yl)azetidin-1-yl)cyclohexyl)oxy)-1-oxoisoindolin-2-yl)piperidine-2,6-dione]
> 30 | > 30 | 78.4 | 0.525 | – | – | – | – | O=C1CCC(N2Cc3cc(OC4CCCCC4N4CC(c5ncc(Cl)cn5)C4)ccc3C2=O)C(=O)N1 (stereo not drawn) [Compound 26-B, 3-(5-((2-(3-(5-chloropyrimidin-2-yl)azetidin-1-yl)cyclohexyl)oxy)-1-oxoisoindolin-2-yl)piperidine-2,6-dione]
> 30 | > 30 | 79.3 | 0.0283 | – | – | – | – | O=C1CCC(N2Cc3cc(OC4CCCCC4N4CC(c5cccc6[nH]ncc56)C4)ccc3C2=O)C(=O)N1 (stereo not drawn) [Compound 71-B, 3-(5-((2-(3-(1H-indazol-4-yl)azetidin-1-yl)cyclohexyl)oxy)-1-oxoisoindolin-2-yl)piperidine-2,6-dione]
– | – | – | – | > 30 | > 30 | 0.138 | > 30 | O=C1CCC(N2Cc3cc(OC4CCC[C@@H]4N4CC(c5cncnc5)C4)ccc3C2=O)C(=O)N1 (mixture of isomers) [Compound 197-B, Rac-3-(1-oxo-5-(((trans)-2-(3-(pyrimidin-5-yl)azetidin-1-yl)cyclopentyl)oxy)isoindolin-2-yl)piperidine-2,6-dione]
– | – | – | – | ≥ 30 | > 30 | > 10 | > 30 | O=C1NC(=O)C2(N3Cc4cc(O[C@@H]5CCCC[C@@H]5N5CC(c6ncc(Cl)cn6)C5)ccc4C3=O)CC1C2 (racemic) [Compound 171-B, Rac-1-(5-(((cis)-2-(3-(5-chloropyrimidin-2-yl)azetidin-1-yl)cyclohexyl)oxy)-1-oxoisoindolin-2-yl)-3-azabicyclo[3.1.1]heptane-2,4-dione]
